Assay results: patent US20240148728A1, “NOVEL METHOD TO BLOCK IN[…] DEATH AND IL-1BETA SECRETION CAUSED BY […] UV I[…] GENETIC AND CHEMICAL INHIBITORS OF ZAKA AND THE NLRP1 INFLAMMASOME” (priority 2021, published 2024)

Key:
[1] = tested on: primary human keratinocytes; assay: Inflammasome-driven pyroptosis in primary human keratinocytes; type: cell-based; conditions: keratinocytes freshly isolated from a healthy donor
293T-ASC-GFP-NLRP1 = type: cell-based, human
NLRP1^DR = assay: NLRP1 PYD-DR1 / NLRP1^DR phosphorylation (GFP fusion, immunoblot, PhosTag SDS-PAGE) in N-TERT cells; type: cell-based, human
Text: The following antibodies were used in this study: cleaved PARP1 (Abclonal, #WH162766), Cleaved CASP3 (Abclonal, #WH154646), Full length GSDMD-FL (Abcam, #ab210070), IL1β p17 specific (CST, #83186S), CARD8 (Abcam, CARD8-NT: ab19485, CARD8-CT: ab241186), DPP9 (Abcam, ab226334), c-Myc (Santa Cruz Biotechnology, #sc-40), HA tag (Santa Cruz Biotechnology, #sc-805), GAPDH (Santa Cruz Biotechnology, #sc-47724), ASC (Adipogen, #AL-177), CASP1 (Santa Cruz Biotechnology, #sc-622), 11_1B (R&D systems, #AF-201), FLAG (SigmaAldrich, #F3165), NLRP1 (R&D systems, #AF6788), IL18 (Abcam ab207324), cleaved GSDMD-NT (Asp275) (Cell Signaling Technology, #36425), RPL31 (Abclonal, #WH162766), CASP7 (Abcam, ab255818), CASP8 (Abcam, ab32397), cleaved CASP3 (Cell Signaling Technology, #9664). All horseradish peroxidase (HRP)— conjugated secondary antibodies were purchased from Jackson Immunoresearch (goat anti-mouse IgG: 115-035-166; goat anti-rabbit IgG: 111-035-144; and donkey anti-goat IgG: 705-005-147). Blue-Native PAGE was carried out using the Native-PAGE system (ThermoFisher) with 10-20 μg of total lysate. For SDS-PAGE using whole cell lysates, cells were resuspended in tris-buffered saline 1% NP-40 with protease inhibitors (Thermo Scientific, #78430). Protein concentration was determined using the Bradford assay (Thermo Scientific, #23200) and […] of protein loaded, a part from cleaved GSDMD-NT visualisation where […] of protein was used. All primary antibodies were used at 250 ng/ml. Visualisation of ASC oligomerization was previously described (Robinson et al., 2020). For analysis of IL1β and IL-18 cleavage in the media by immunoblotting, samples were concentrated using filtered centrifugation (Merck, Amicon Ultra, #UFC5003BIK). Protein samples were run using immunoblotting, and then visualized using a ChemiDoc Imaging system (Bio-Rad). PhosTag SDS-PAGE was carried out using homemade 10% SDS-PAGE gel, with addition of Phos-tag Acrylamide (Wako Chemicals, AAL-107) to a final concentration of 30 μM and manganese chloride(II) (Sigma-Aldrich, #63535) to 60 μM.
Cells were directly harvested using Laemmli buffer, lysed with an ultrasonicator, and loaded into the Phos-tag gel to run. Once the run was completed, the polyacrylamide gel was washed in transfer buffer with 10 mM EDTA twice, subsequently washed without EDTA twice, blotted onto 0.45 μm PVDF membranes (Bio-rad), blocked with 3% milk, and incubated with primary and corresponding secondary antibodies.

COc1ccc(C[C@H]2NC[C@H](O)[C@H]2OC(C)=O)cc1 [ANS, Anisomycin]
inflammasome-driven pyroptosis [1]: induce inflammasome-driven pyroptosis was also confirmed | ASC-GFP speck formation, screen of cytotoxic chemicals (293T-ASC-GFP-NLRP1; ANS 1 μM, LTM 1 μg/ml, STS 1 μM): identified two hits | percentage of cells with ASC-GFP specks compared with VbP (293T-ASC-GFP-NLRP1; equivalent concentrations): to a greater extent than VbP at equivalent concentrations | dose dependence of percentage of cells with ASC-GFP specks (293T-ASC-GFP-NLRP1; increasing levels of ANS): in a dose-dependent manner (FIG. 2B) up to 20 μM | NLRP1^DR hyperphosphorylation (NLRP1^DR; NLRP1DR-GFP in N-TERT cells, PhosTag SDS-PAGE): became further phosphorylated | band shift (phosphorylation) of PYD-DR1-GFP (NLRP1^DR; NLRP1 KO N-TERT cells expressing GFP-tagged PYD-DR1): band shift in PYD-DR1-GFP
